Test results reported in patent US9062018B2, “Crytalline form of 13-[(N-tert-butoxycarbonyl)-2′-O-hexanoyl-3-phenylisoserinyl]-10-deacetylbaccatin III” (Indena S.p.A, priority 2010, dated 2015).

How the values were obtained:
[1] = Stability data at 25±2° C. and 60±5% relative humidity of amorphous and Form A of compound (1); format: physicochemical; conditions: for HPLC assay (%) of compound (1) with reference to the anhydrous and solvent free basis / IR identification / Potential impurity-HPLC (area %): 10-dehydro compound (1): 25±2° C.; for HPLC assay (%) of compound (1) with reference to the anhydrous and solvent free basis / IR identification / Potential impurity-HPLC (area %): 10-dehydro compound (1) / Specific optical rotation (°) (c = 1 ethanol, at 20° C.): 60±5% relative humidity; for Specific optical rotation (°) (c = 1 ethanol, at 20° C.): storage 25±2° C.
Protocol: Stability data at 25±2° C. and 60±5% relative humidity of amorphous and Form A of compound (1). The packaging was the same for both solid forms (Amber glass vial+polyethylene bag+vacuum sealed PET/Aluminum/PE multilayer bag).

[2] = ICH stability studies (chemical stability of the solid form); format: physicochemical; conditions: mainly an impurity stemming from oxidation of the 10-position of the baccatin core
Source text: Thus it is desirable to find a crystalline form of compound (1) which is chemically and thermodynamically stable. A method for preparing such solid form of compound (1) continually and constantly is also a prerequisite for the development of a robust manufacturing process.

[3] = T = 0, against the reference FTIR figure of the form
[4] = T = 0, amber glass vial + polyethylene bag + vacuum sealed PET/Aluminum/PE multilayer bag

| SMILES | HPLC assay (%) of compound (1) with reference to the anhydrous and solvent free basis ([1]; 3 months) | IR identification ([1]; 3 months) | Potential impurity-HPLC (area %): 10-dehydro compound (1) ([1]; 3 months) | Specific optical rotation (°) (c = 1 ethanol, at 20° C.) ([1]; 3 months) | HPLC assay (%) of compound (1) with reference to the anhydrous and solvent free basis ([1]; 6 months) | IR identification ([1]; 6 months) | Potential impurity-HPLC (area %): 10-dehydro compound (1) ([1]; 6 months) | Specific optical rotation (°) (c = 1 ethanol, at 20° C.) ([1]; 6 months) | Potential impurity-HPLC (area %): 10-dehydro compound (1) ([1]; T = 0) | IR identification [1, 3] | HPLC assay (%) of compound (1) with reference to the anhydrous and solvent free basis [1, 4] | Specific optical rotation (°) (c = 1 ethanol, at 20° C.) ([1]; T = 0) | Oxidation of the 10-position of the baccatin core ([1]; solid form on storage) | Chemical stability during ICH stability studies [2] |
| --- | --- | --- | --- | --- | --- | --- | --- | --- | --- | --- | --- | --- | --- | --- |
| CCCCCC(=O)OC(C(=O)OC1CC2(O)C(OC(=O)c3ccccc3)C3C4(OC(C)=O)COC4CC(O)C3(C)C(=O)C(O)C(=C1C)C2(C)C)C(NC(=O)OC(C)(C)C)c1ccccc1 (centres unmarked) [Form A of compound (1), 13-[(N-tert-butoxycarbonyl)-2′-O-hexanoyl-3-phenylisoserinyl]-10-deacetylbaccatin III] | 99.0% | Complies | 0.29% area % | −46.3 ° | 99.1% | Complies | 0.29% area % | −46.3 ° | 0.29% area % | Complies with | 99.0% | −46.2 ° | prevented |  |
| CCCCCC(=O)OC(C(=O)OC1CC2(O)C(OC(=O)c3ccccc3)C3C4(OC(C)=O)COC4CC(O)C3(C)C(=O)C(O)C(=C1C)C2(C)C)C(NC(=O)OC(C)(C)C)c1ccccc1 (centres unmarked) [Amourphous Form of compound (1), 13-[(N-tert-butoxycarbonyl)-2′-O-hexanoyl-3-phenylisoserinyl]-10-deacetylbaccatin III] | 99.0% | Complies | 0.36% area % | −46.3 ° | 98.9% | Complie | 0.53% area % | −46.0 ° | 0.29% area % | Complies with | 99.7% | −46.0 ° |  | problems of chemical stability |
